Data as given in EP4458977A1, “SELF-ASSEMBLING PEPTIDE AMPHIPHILES AS RETROVIRAL TRANSDUCTION ENHANCERS” (Max-Planck-Gesellschaft zur Förderung der Wissenschaften …, priority 2023, dated 2024).
Entries after “also recorded” stand apart in the source; their conditions may differ. Read-outs that look alike come from different tables or passages of the source. Where a SMILES comes first, the peptide text is derived from it. Where no end group is shown, it is not given here. The star is where a group is joined. X1 = CC/C=C\C/C=C\C/C=C\C/C=C\C/C=C\CCCC(=O)*; Fmoc = O=C(OCC1c2ccccc2-c2ccccc21)*; Palmitoyl = CCCCCCCCCCCCCCCC(=O)*; Lauroyl = CCCCCCCCCCCC(=O)*; Nonanoyl = CCCCCCCCC(=O)*

Assays:
[1] = Thioflavin T (ThT) fluorescence assay; type: physicochemical; settings: relative to PBS control
Description: Transmission electron microscopy (TEM) measurements, Thioflavin (ThT), zeta-potential measurements for fibril characterization were prepared and conducted according to prior art procedures. […] Fibrils were defined as distinct, if no visible structures could be identified in fluorescence and brightfield microscopy. A peptide fibril was considered as ThT-active if the fluorescence intensity was at least twice as strong compared to the control (PBS containing 10% DMSO).

HeLa cells = experiment: Confocal laser scanning microscopy and degradation study with PA library and HeLa cells; type: cell-based; settings: for association with cellular membranes: 2 µg added to 20.000 HeLa cells, 30 min; for degradability (in words) / Degradability / % (rel. to initial particles > 10 µm^2): HeLa cells; for degradability (in words): 3 days; for Degradability / % (rel. to initial particles > 10 µm^2): 3 d relative to 30 min; for aggregate number decreases / degraded in presence of HeLa cells within 3 days: d3 relative to d0
Summary of the method: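 HeLa cells (20,000/well) got Proteostat-stained PAs (2 µg peptide per 20.000 cells) with Hoechst nuclear stain, 30 min at 37°C, PBS-washed, then held 3 d at 37°C unwashed. Confocal imaging at d0 and d3 counted aggregates >10 µm^2 in 1008 × 1008 µm, three technical replicates. Degradation taken as d3/d0 aggregate number.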

[2] = Zeta-potential measurement (dynamic light scattering); type: physicochemical
[3] = Fluorescence microscopy of ThT-stained fibrils (µm-sized aggregates); type: physicochemical; settings: for fluorescent, µm-sized aggregates (ThT staining): 1 mg/mL stained with 50 µM ThT
Summary of the method: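 Fibrils (1 mg mL^-1) mixed 1:9 with 50 µM ThT, giving 0.1 mg mL^-1 stained fibrils on glass. Imaged under 10x air objective with excitation 480/40 nm and emission 527/30 nm. Fibrils called distinct when no visible structures appeared in fluorescence or brightfield.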

[4] = Zeta-potential measurement (dynamic light scattering); type: physicochemical; settings: for Count Rate / kcps: derived count rate of scattered light during zeta-potential measurements
Description: Zeta-potential: 60 µL of the peptides (1 mg mL-1) were diluted in 600 µL, 1 mM KCI solution and placed in a disposable folded capillary cuvette. All zeta-potential measurements were conducted by dynamic light scattering technology (Zetasizer, Malvern Instruments) and in triplicates for each sample. The derived count rate of the zeta potential measurement was used as information on the light scattering intensity and turbidity of the sample as a further indicator for microscopic aggregation.

[5] = TEM of peptide assemblies (fibril formation / assembly); type: physicochemical; parameters: key to Fibril Formation: "1" means fibril formation observed; "0" means no fibrils observed; settings: for TEM morphology (in words): 1 mg/mL in PBS; for Assembly without hydrophob residue: corresponding peptide without hydrophobic moiety; for Assembly: peptide amphiphile; for Fibril Formation: via TEM
Summary of the method: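 Peptides predissolved in DMSO at 10 mg/mL (stock), diluted in PBS to 650 µM or 1 mg/mL final and incubated 1 d at rt (20–25 °C) to form fibrils. Other concentrations obtained by diluting preformed fibrils; assemblies imaged by TEM.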

HIV-1 = settings: for enhancement of HIV-1 infection / transduction (in words): 6.5 µM, 1.3 µM, 0.26 µM; for Infectivity enhancing N fold at 1.3 µM: relative to virus only;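 for all read-outs here: TZM-bl reporter cells exposed to HIV-1 with peptide fibrils, infection read out as β-galactosidase luminescence, compared with virus alone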
Description: HIV-1 Infection Assay with TZM-bl cells: The effect of peptide fibrils on HIV-1 infection was studied via a luminescence assay for β-galactosidase, which was reported by TZM-bl cells upon infection. The HIV-1 infection assay was conducted in three technical replicates and repeated in three independent experiments unless stated otherwise.

[6] = ATR-FT-IR determination of β-sheet content; type: physicochemical; settings: 1 mg/mL in PBS lyophilized; integral at 1630 cm^-1 relative to 1650-1700 cm^-1
Summary of the method: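 From second-derivative spectra, β-sheet amount is the 1630 cm-1 integral over the 1650-1700 cm-1 (native) region. Spectra were taken on solid, lyophilized fibrils via diamond-crystal ATR, averaging 64 scans at 2 cm^-1 resolution.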

Compound | N-fold ThT-fluorescence [1] | association with cellular membranes (HeLa cells) | degradability (in words) (HeLa cells) | Degradability / % (rel. to initial particles > 10 µm^2) (HeLa cells) | aggregate number decreases / degraded in presence of HeLa cells within 3 days (HeLa cells) | Zeta-Potential / mV [2] | fluorescent, µm-sized aggregates (ThT staining) [3] | Count Rate / kcps [4] | TEM morphology (in words) [5] | Assembly without hydrophob residue [5] | Assembly [5] | Fibril Formation ([5]; linkage chemistry exchange) | enhances infectivity at 1.3 µM concentration, times more efficient compared to virus only infection (HIV-1) | enhancement of HIV-1 infection / transduction (in words) (HIV-1) | Infectivity enhancing N fold at 1.3 µM (HIV-1) | β-sheet amount [6] | formation of µm-sized aggregates in aqueous medium / PBS (in words) [3] | zeta-potential (in words) [4] | Fibril Formation ([5]; hydrophobic moiety exchange) | other results
C16-thioester-CVVVAAAKKK-NH2 (C(Palmitoyl)VVVAAAKKK-NH2; N-terminus assumed; SMILES CCCCCCCCCCCCCCCC(=O)SC[C@H](N)C(=O)N[C@H](C(=O)N[C@H](C(=O)N[C@H](C(=O)N[C@@H](C)C(=O)N[C@@H](C)C(=O)N[C@@H](C)C(=O)N[C@@H](CCCCN)C(=O)N[C@@H](CCCCN)C(=O)N[C@@H](CCCCN)C(N)=O)C(C)C)C(C)C)C(C)C) [Pat3] | 166.1 | association with cellular membranes | degradable PA | 87% | 87% | 18.3 mV | fluorescent, µm-sized aggregates | 2058.5 kcps | fibrillar morphologies | No | Yes | 1 | 11 times | potent enhancers of HIV-1 infection | 11±4 N fold | 50% |  |  |  | 
CC/C=C\C/C=C\C/C=C\C/C=C\C/C=C\CCCC(=O)N[C@H](C(=O)N[C@H](C(=O)N[C@H](C(=O)N[C@@H](C)C(=O)N[C@@H](C)C(=O)N[C@@H](C)C(=O)N[C@@H](CCCCN)C(=O)N[C@@H](CCCCN)C(=O)N[C@@H](CCCCN)C(N)=O)C(C)C)C(C)C)C(C)C [Pat10] (X1-VVVAAAKKK-NH2) | 61.9 | association with cellular membranes | degradable PA | 99% | 99% | 16.9 mV | fluorescent, µm-sized aggregates | 6069.8 kcps | able to form fibrils; also recorded: condensed spherical structures composed of fibrils | No | Yes |  | 12 times | showed infectivity enhancement | 12±1 N fold | 51% | form µm-sized aggregates | positive zeta-potential | 1 | enhancement of HIV-1 infection / transduction (in words) (HIV-1; listed as peptide amphiphile with eicosapentaenoic acid (EPA)): even stronger infectivity enhancement than the reference compounds EF-C or PA1
C16-ester-SVVVAAAKKK-NH2 (S(Palmitoyl)VVVAAAKKK-NH2; N-terminus assumed; SMILES CCCCCCCCCCCCCCCC(=O)OC[C@H](N)C(=O)N[C@H](C(=O)N[C@H](C(=O)N[C@H](C(=O)N[C@@H](C)C(=O)N[C@@H](C)C(=O)N[C@@H](C)C(=O)N[C@@H](CCCCN)C(=O)N[C@@H](CCCCN)C(=O)N[C@@H](CCCCN)C(N)=O)C(C)C)C(C)C)C(C)C) [Pat1] | 277.1 | association with cellular membranes | degraded well, but not as efficient as PA1 or Pat3; also recorded: degradable PA | 31% | 30% | 20.5 mV | fluorescent, µm-sized aggregates | 3217.3 kcps | fibrillar morphologies | No | Yes | 1 | 17 times |  | 17±5 N fold | 43% |  |  |  | 
CC(C)[C@H](NC(=O)OCC1c2ccccc2-c2ccccc21)C(=O)N[C@H](C(=O)N[C@H](C(=O)N[C@@H](C)C(=O)N[C@@H](C)C(=O)N[C@@H](C)C(=O)N[C@@H](CCCCN)C(=O)N[C@@H](CCCCN)C(=O)N[C@@H](CCCCN)C(N)=O)C(C)C)C(C)C [Pat12] (Fmoc-VVVAAAKKK-NH2) | 269.9 | association with cellular membranes | non-degradable PA | 28% | 28% | 15.2 mV | fluorescent, µm-sized aggregates | 509.5 kcps | able to form fibrils; also recorded: fibrillar morphologies | No | Yes |  | 5 times | showed infectivity enhancement | 5±1 N fold | 52% | form µm-sized aggregates | positive zeta-potential | 1 | 
CCCCCCCCCCCC(=O)N[C@H](C(=O)N[C@H](C(=O)N[C@H](C(=O)N[C@@H](C)C(=O)N[C@@H](C)C(=O)N[C@@H](C)C(=O)N[C@@H](CCCCN)C(=O)N[C@@H](CCCCN)C(=O)N[C@@H](CCCCN)C(N)=O)C(C)C)C(C)C)C(C)C [Pat7] (Lauroyl-VVVAAAKKK-NH2) | 185.7 | association with cellular membranes | non-degradable PA | -32% | 32% | 19.4 mV | fluorescent, µm-sized aggregates | 3558.1 kcps | able to form fibrils; also recorded: fibrillar morphologies | No | Yes |  | 6 times |  | 6±1 N fold | 49% | form µm-sized aggregates | positive zeta-potential | 1 | 
CCCCCCCCC(=O)N[C@H](C(=O)N[C@H](C(=O)N[C@H](C(=O)N[C@@H](C)C(=O)N[C@@H](C)C(=O)N[C@@H](C)C(=O)N[C@@H](CCCCN)C(=O)N[C@@H](CCCCN)C(=O)N[C@@H](CCCCN)C(N)=O)C(C)C)C(C)C)C(C)C [Pat8] (Nonanoyl-VVVAAAKKK-NH2) | 37.1 | association with cellular membranes | non-degradable PA | 78% | 78% | 13.5 mV | fluorescent, µm-sized aggregates | 77.2 kcps | formed fibrils in aqueous medium; also recorded: fibrillar morphologies | No | Yes |  |  |  | 2±0 N fold | 49% | failed to form µm-sized aggregates in aqueous medium |  | 1 | infectivity enhancement at 1.3 µM concentration compared to virus only infection (in words) (HIV-1): does not enhance infectivity
